In article PMC3717276, “Optimization and validation of mitochondria-based functional assay as a useful tool to identify BH3-like molecules selectively targeting anti-apoptotic Bcl-2 proteins” (BMC Biotechnology, 2013):
Ends that are not written are not given here.

What was measured:
[1] = system: mitochondria isolated from 2LMP cells; test: Permeabilization of mitochondrial outer membrane (MOMP), Cytochrome C and Smac release by Western blot; type: biochemical, human; conditions: agent alone at indicated concentrations, 100 mM KCl buffer, 37°C, 60 min, Figure 3A
Method: Mitochondria were isolated from breast cancer cells. Cells were harvested by centrifugation at 1200 g (Microcentrifuge 5415R from Eppendorf) for 5 min at 4°C and then washed with ice-cold PBS. Cell pellets were resuspended in 400 μl of mitochondria isolation buffer (MIB: pH 7.4; 0.1 mM EDTA, 10 mM Tris–HCl, 250 mM Sucrose) freshly added 1 mM PMSF and Protease Inhibitor Cocktail (Roche). Cell suspensions were then homogenized with 40 strokes in a Dounce Tissue Grinder on ice and centrifuged at 1200 g for 10 min at 4°C. Supernatants were centrifuged at 12000 g for 10 min at 4°C. Pellet enriched in mitochondria was washed three times with MIB, spun down at 12000 g for 10 min at 4°C. […] Protein concentrations were determined using Bradford Protein Assay (Protein Assay Kit II, Cat# 500–0002, Bio-Rad). […]
Supernatant samples and mitochondrial pellet samples were subjected to protein separation by SDS-PAGE. After transfer to Polyvinylidene fluoride (PVDF) membranes, Cytochrome C, Smac proteins and loading control (Cytochrome C Oxidase IV, COX IV) were analyzed using the following primary antibodies: anti-Cytochrome C polyclonal antibody (1:500; #4272; Cell Signaling Techonology), anti-Smac/DIABLO polyclonal antibody (1:500; PC574; Calbiochem), anti-COX IV monoclonal antibody (3E11; 1:1000; #4850; Cell Signaling Techonology). […]

Mcl-1 [2] = molecular target: T1, Mcl-1 (Homo sapiens, UniProt Q07820); test: SPR competitive solution binding assay (immobilized Bim BH3 peptide); conditions: read-out: SPR Mcl-1 IC50[nM] ± SD
T1 construct: encoding amino acid residues of 171–327; 8xHis (pHis-TEV vector) (N); made in house; host or cells: E. coli BL21(DE3)
Method: The Mcl-1fragment (NM_021960) encoding amino acid residues of 171–327 was cloned into the pHis-TEV vector. Mcl-1 protein with an N-terminal 8×His tag was produced in E. coli BL21(DE3).
(§1) Determination of kon, koff and Kd were calculated by simultaneous non-linear regression using BIAevaluation software (BIAcore Life Sciences).
(§2) IC50 values were determined by Non-linear Least Squares analysis using Graph Pad Prism 5.0 software.

Mcl-1 [3] = molecular target: T1, Mcl-1; test: FP competitive binding assay (FAM-Bid tracer); conditions: read-out: FP assay Mcl-1 Ki[nM] ± SD
Method: After 2–3 hours incubation, the polarization values in milipolarization units (mP) were measured at an excitation wavelength of 485 nm and an emission wavelength of 530 nm using the Synergy H1 Hybrid Microplate Reader (BioTek).

Bcl-xL [4] = molecular target: T2, Bcl-xL (Homo sapiens, UniProt Q07817, DEL45-85); test: SPR competitive solution binding assay (immobilized Bim BH3 peptide); conditions: read-out: SPR Bcl-xL IC50[nM] ± SD
T2 construct: 8xHis (pHis-TEV vector) (N); made in house; host or cells: E. coli BL21(DE3)
Method: Lysis buffer contained 50 mM Tris, pH 7.5, 200 mM NaCl, 0.1% BME and Leupectin/Aprotin, while protein was eluted in buffer containing 20 mM Tris, pH7.5, 150 mM NaCl and 5 mM DTT.
as §1, §2

Bcl-xL [5] = molecular target: T2, Bcl-xL; test: FP competitive binding assay (FAM-Bak tracer); conditions: read-out: FP assay Bcl-xL Ki[nM] ± SD

T1 sequence (Q07820 171-327): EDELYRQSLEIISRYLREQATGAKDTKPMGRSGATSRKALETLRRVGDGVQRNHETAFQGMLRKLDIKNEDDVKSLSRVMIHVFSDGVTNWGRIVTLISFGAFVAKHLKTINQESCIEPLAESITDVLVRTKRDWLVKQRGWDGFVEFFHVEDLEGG
T2 sequence (Q07817 with tags, fused parts or gaps DEL45-85): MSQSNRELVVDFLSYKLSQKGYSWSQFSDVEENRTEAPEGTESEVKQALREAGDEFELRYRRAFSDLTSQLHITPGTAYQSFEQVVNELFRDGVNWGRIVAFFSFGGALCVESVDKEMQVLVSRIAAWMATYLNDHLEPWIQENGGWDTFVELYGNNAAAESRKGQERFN

Molecule: CN(C)CC[C@H](CSc1ccccc1)Nc1ccc(S(=O)(=O)NC(=O)c2ccc(N3CCN(Cc4ccccc4-c4ccc(Cl)cc4)CC3)cc2)cc1[N+](=O)[O-] [ABT-737]
- Cytochrome C and Smac release from 2LMP mitochondria [1]: effectively induced Cytochrome C and Smac release

Molecule: CSCC[C@H](NC(=O)[C@H](CCCNC(=N)N)NC(=O)[C@H](CCCNC(=N)N)NC(=O)[C@H](CC(C)C)NC(=O)[C@H](CCC(=O)O)NC(=O)[C@H](CCCNC(=N)N)NC(=O)CNC(=O)[C@H](Cc1ccc(O)cc1)NC(=O)[C@H](CCCNC(=N)N)NC(=O)[C@H](CCC(N)=O)NC(=O)[C@H](C)NC(=O)[C@H](C)NC(=O)[C@H](Cc1c[nH]c2ccccc12)NC(=O)[C@H](CC(C)C)NC(=O)[C@@H](N)CC(N)=O)C(=O)N[C@@H](CO)C(=O)N[C@@H](CC(=O)O)C(=O)N[C@@H](CCC(=O)O)C(=O)N[C@@H](Cc1ccccc1)C(=O)N[C@H](C(=O)N[C@@H](CC(=O)O)C(=O)N[C@@H](CO)C(=O)N[C@@H](Cc1ccccc1)C(=O)N[C@@H](CCCCN)C(=O)N[C@@H](CCCCN)C(=O)NCC(=O)O)C(C)C [Bad]
- IC50 (Mcl-1 [2]): > 30000 nM
- Ki (Mcl-1 [3]): > 20000 nM

Molecule: PAELEVECATQLRRFGDKLNFRQKLL [Noxa]
- IC50 (Bcl-xL [4]): > 30000 nM
- Ki (Bcl-xL [5]): > 10000 nM
